Laboratory results: publication PMC9369794 (Molecules, 2022)

Key:
[1] = TEAC assay using ABTS radical; conditions: 6 min, ratio of slopes to trolox (melatonin dissolved in EtOH); for TEAC from DMSO: stock in DMSO diluted with PBS pH 7.4, 37 °C; for TEAC from THF: stock in THF diluted with PBS pH 7.4, 37 °C
[2] = FRAP assay for the antioxidant capacity; parameters: key to FRAP: slope of concentration-absorbance line divided by Trolox slope; conditions: for FRAP: stock in THF, acetate buffer pH 3.0, 37 °C, 15 min, ratio of slopes to trolox (melatonin in EtOH)
How it was run: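 Fe^3+→Fe^2+ reduction by antioxidants (THF stocks) in FRAP reagent (FeCl3/TPTZ, 300 mM acetate buffer pH 3.0), 15 min at 37 °C in the dark. Absorbance at 600 nm measured in triplicate at 0-17.5 μM final. FRAP value = slope of absorbance-concentration line divided by Trolox slope.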

Water dispersibility = type: physicochemical; conditions: distilled water, sonication
Procedure: About 2 mg of the examined substance was dispersed in 40 mL of distilled water and the suspension was sonicated for 2 min. The addition of water was continued with 10 mL portions, after each portion the mixture was sonicated for 2 min. This process was continued till a homogenous solution was observed by naked eye. Then, the solution was let to stand for an hour to inspect any precipitate formation, but no changes occurred in any of the cases.

[3] = Study of aggregation by UV-Vis spectrophotometry; type: physicochemical; conditions: for change of UV spectrum with increasing ratio of PBS: starting from THF solutions
How it was run: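 Conjugates dissolved in THF and diluted with THF or THF-PBS mixtures (1:1, 1:3) at identical carotenoid concentration; separately, 2.5∙10−4 M DMSO stocks added to PBS to final 0.3125–5 μM carotenoid. UV-Vis spectra recorded to follow band shifts and fine-structure changes; DMSO-PBS solutions also examined by DLS.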

| Compound | TEAC from DMSO [1] | TEAC from THF [1] | FRAP value relative to the succinates of the other carotenoids ([2]; acetate buffer pH 3.0) | FRAP [2] | Water Dispersibility (Water dispersibility) | change of UV spectrum with increasing ratio of PBS [3] | type of aggregates formed ([3]; from THF:aqueous solutions) |
| --- | --- | --- | --- | --- | --- | --- | --- |
| CC1=C(/C=C/C(C)=C/C=C/C(C)=C/C=C/C=C(C)/C=C/C=C(\C)COC(=O)CCC(=O)O)C(C)(C)CCC1 [Compound 6, 8′-Apo-β-carotenol succinate] | 1.19 | 1.913 | 1.5–2 times | 0.276 | 1.5 mg/100 mL | did not cause much change |  |
| CC1=C(/C=C/C(C)=C/C=C/C(C)=C/C=C/C=C(C)/C=C/C=C(C)/C=C/C2=C(C)C[C@@H](OC(=O)CCC(=O)O)CC2(C)C)C(C)(C)C[C@H](OC(=O)CCC(=O)O)C1 [Compound 7, Zeaxanthin bissuccinate] | 0.86 | 2.090 |  | 0.155 | 1.3 mg/100 mL | did not cause much change |  |
| CC1=C(/C=C/C(C)=C/C=C/C(C)=C/C=C/C=C(C)/C=C/C=C(C)/C=C/C2=C(C)C[C@@H](OC(=O)CCC(=O)O)CC2(C)C)C(C)(C)CCC1 [Compound 8, β-Cryptoxanthin succinate] |  | 1.827 |  | 0.181 | less than 0.5 mg/100 mL | bathochromic shift | J-type (head-to-tail) aggregates |
